Measured values reported in ChEMBL document CHEMBL4613324, “Design, Synthesis, and Evaluation of a Series of Novel Super Long-Acting DPP-4 Inhibitors for the Treatment of Type 2 Diabetes” (J Med Chem, 2020).
Calls of active or inactive are those of the source. No cut-off for these calls is given here.

Tests used:
[1] = Clearance in ICR mouse at 0.5 mg/kg, iv measured after 0.0833 to 120 hrs by LC-MS-MS analysis; assay type: ADME, organism-based; settings: in vivo
[2] = Half life in ICR mouse at 2 mg/kg, po measured after 0.0833 to 120 hrs by LC-MS-MS analysis; assay type: ADME, organism-based; settings: in vivo
[3] = Half life in ICR mouse at 0.5 mg/kg, iv measured after 0.0833 to 120 hrs by LC-MS-MS analysis; assay type: ADME, organism-based; settings: in vivo
[4] = Cmax in ICR mouse at 2 mg/kg, po measured after 0.0833 to 120 hrs by LC-MS-MS analysis; assay type: ADME, organism-based; parameters: dose 2 mg/kg, route oral; settings: in vivo
[5] = Intrinsic clearance in mouse liver microsomes at 0.5 uM incubated for 0.5 to 60 mins by LC-MS/MS analysis; assay type: ADME, Microsome; settings: read-out: CLH
[6] = target: Dipeptidyl peptidase 4 (Mus musculus) (UniProt P28843); assay: Ex-vivo inhibition of DPP4 in plasma isolated from ob/ob mouse treated at 3 to 30 mg/kg, po measured after 2 to 72 hrs by fluorescence based assay; assay type: functional, organism-based
Rhesus monkey = assay: Ex-vivo inhibition of DPP4 in plasma isolated from rhesus monkey treated at 10 mg/kg, ig after 3 weeks by fluorescence based assay relative to control; assay type: functional; settings: Macaca mulatta, po, 504 h
Mus musculus = assay: Antidiabetic activity in ob/ob mouse assessed as reduction in random blood glucose levels at 1 to 10 mg/kg, po dosed once every three days for 31 days; assay type: functional, organism-based
Dipeptidyl peptidase 8 = Dipeptidyl peptidase 8 (Homo sapiens, UniProt Q6V1X1); assay: Inhibition of human recombinant DPP8 incubated for 15 mins using Gly-Pro-7-AMC substrate
CYP2B6 = CYP2B6 (Homo sapiens, UniProt P20813); assay: Stability assessed as recombinant human CYP2B6 mediated compound metabolism by measuring parent compound remaining after 30 mins relative to control; assay type: ADME; settings: read-out: Stability
CYP2C19 = CYP2C19 (Homo sapiens, UniProt P33261); assay: Stability assessed as recombinant human CYP2C19 mediated compound metabolism by measuring parent compound remaining after 30 mins relative to control; assay type: ADME; settings: read-out: Stability
CYP2E1 = CYP2E1 (Homo sapiens, UniProt P05181); assay: Stability assessed as recombinant human CYP2E1 mediated compound metabolism by measuring parent compound remaining after 30 mins relative to control; assay type: ADME; settings: read-out: Stability
CYP3A4 = CYP3A4 (Homo sapiens, UniProt P08684); assay: Stability assessed as recombinant human CYP3A4 mediated compound metabolism by measuring parent compound remaining after 30 mins relative to control; assay type: ADME; settings: read-out: Stability
CYP3A5 = CYP3A5 (Homo sapiens, UniProt P20815); assay: Stability assessed as recombinant human CYP3A5 mediated compound metabolism by measuring parent compound remaining after 30 mins relative to control; assay type: ADME; settings: read-out: Stability
Cytochrome P450 2B6 [7] = target: T1, Cytochrome P450 2B6 (Homo sapiens, UniProt P20813); assay: (§1) Inhibition of recombinant human CYP2B6; assay type: ADME
T1 sequence (P20813 whole entry): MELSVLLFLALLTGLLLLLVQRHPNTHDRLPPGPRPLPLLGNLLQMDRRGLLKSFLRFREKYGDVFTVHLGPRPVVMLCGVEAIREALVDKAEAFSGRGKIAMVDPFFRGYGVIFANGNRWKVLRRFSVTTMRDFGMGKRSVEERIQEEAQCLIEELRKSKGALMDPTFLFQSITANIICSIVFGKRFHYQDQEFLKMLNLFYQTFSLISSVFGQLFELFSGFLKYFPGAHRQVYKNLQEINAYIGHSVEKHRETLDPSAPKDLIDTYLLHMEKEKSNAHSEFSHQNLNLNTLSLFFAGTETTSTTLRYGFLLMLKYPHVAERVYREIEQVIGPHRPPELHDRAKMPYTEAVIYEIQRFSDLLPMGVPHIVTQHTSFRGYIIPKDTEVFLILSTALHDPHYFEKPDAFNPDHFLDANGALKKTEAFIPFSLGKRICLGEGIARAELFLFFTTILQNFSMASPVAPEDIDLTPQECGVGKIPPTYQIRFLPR

Cytochrome P450 2C9 [8] = target: T2, Cytochrome P450 2C9 (Homo sapiens, UniProt P11712); assay: (§2) Inhibition of recombinant human CYP2C9; assay type: ADME
Cytochrome P450 2D6 [9] = target: T3, Cytochrome P450 2D6 (Homo sapiens, UniProt P10635); assay: (§3) Inhibition of recombinant human CYP2D6; assay type: ADME
Cytochrome P450 2C8 = target: T4, Cytochrome P450 2C8 (Homo sapiens, UniProt P10632); assay: Inhibition of recombinant human CYP2C8; assay type: ADME
T4 sequence (P10632 whole entry): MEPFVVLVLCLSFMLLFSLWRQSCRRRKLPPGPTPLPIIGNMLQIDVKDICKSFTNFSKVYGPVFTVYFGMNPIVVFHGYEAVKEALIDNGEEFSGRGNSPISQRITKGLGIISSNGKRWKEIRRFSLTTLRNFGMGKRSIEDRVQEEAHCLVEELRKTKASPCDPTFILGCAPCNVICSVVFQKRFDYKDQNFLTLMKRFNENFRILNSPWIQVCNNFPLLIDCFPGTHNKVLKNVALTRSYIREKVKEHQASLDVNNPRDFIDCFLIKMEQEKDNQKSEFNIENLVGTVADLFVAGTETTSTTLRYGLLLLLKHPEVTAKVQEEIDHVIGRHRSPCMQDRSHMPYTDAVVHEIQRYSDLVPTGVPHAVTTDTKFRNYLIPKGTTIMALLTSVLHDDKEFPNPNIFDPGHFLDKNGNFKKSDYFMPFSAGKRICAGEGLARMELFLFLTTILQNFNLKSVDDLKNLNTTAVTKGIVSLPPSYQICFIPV

Cytochrome P450 2B6 [10] = target: T1, Cytochrome P450 2B6; assay: as §1; assay type: ADME; remark: listed apart in the source
Cytochrome P450 2C9 [11] = target: T2, Cytochrome P450 2C9; assay: as §2; assay type: ADME; remark: listed apart in the source
Cytochrome P450 2D6 [12] = target: T3, Cytochrome P450 2D6; assay: as §3; assay type: ADME; remark: listed apart in the source
Cytochrome P450 2E1 [13] = target: T5, Cytochrome P450 2E1 (Homo sapiens, UniProt P05181); assay: (§4) Inhibition of recombinant human CYP2E1; assay type: ADME
Cytochrome P450 3A4 [14] = target: T6, Cytochrome P450 3A4 (Homo sapiens, UniProt P08684); assay: (§5) Inhibition of recombinant human CYP3A4 using testosterone as substrate; assay type: ADME
Cytochrome P450 3A4 [15] = target: T6, Cytochrome P450 3A4; assay: Inhibition of recombinant human CYP3A4 using midazolam as substrate; assay type: ADME
Cytochrome P450 3A5 [16] = target: T7, Cytochrome P450 3A5 (Homo sapiens, UniProt P20815); assay: (§6) Inhibition of recombinant human CYP3A5 using midazolam as substrate; assay type: ADME
Cytochrome P450 2E1 [17] = target: T5, Cytochrome P450 2E1; assay: as §4; assay type: ADME; remark: listed apart in the source
Cytochrome P450 3A4 [18] = target: T6, Cytochrome P450 3A4; assay: as §5; assay type: ADME; remark: listed apart in the source
Cytochrome P450 3A5 [19] = target: T7, Cytochrome P450 3A5; assay: as §6; assay type: ADME; remark: listed apart in the source
[20] = Toxicity in female Sprague-Dawley rat during 3-month repeated dose toxicology study; settings: in vivo
[21] = AUC in male Sprague-Dawley rat during 3-month repeated dose toxicology study; assay type: ADME; settings: in vivo
[22] = AUC in T2D patient; assay type: ADME; settings: human, in vivo

T6 sequence (P08684 whole entry): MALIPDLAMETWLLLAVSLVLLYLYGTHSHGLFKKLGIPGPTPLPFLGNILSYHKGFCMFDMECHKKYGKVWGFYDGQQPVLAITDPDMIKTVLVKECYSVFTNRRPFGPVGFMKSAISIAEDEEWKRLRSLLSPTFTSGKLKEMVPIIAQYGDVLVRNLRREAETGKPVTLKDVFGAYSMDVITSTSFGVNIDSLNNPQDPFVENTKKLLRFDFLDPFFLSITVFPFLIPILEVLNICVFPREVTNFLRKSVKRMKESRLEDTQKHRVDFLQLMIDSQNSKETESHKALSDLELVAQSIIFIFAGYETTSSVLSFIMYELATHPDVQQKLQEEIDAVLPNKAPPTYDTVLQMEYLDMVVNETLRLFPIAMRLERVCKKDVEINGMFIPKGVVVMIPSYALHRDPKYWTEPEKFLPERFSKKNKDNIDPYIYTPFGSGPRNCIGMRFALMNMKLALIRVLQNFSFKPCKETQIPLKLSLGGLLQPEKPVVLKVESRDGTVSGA
T5 sequence (P05181 whole entry): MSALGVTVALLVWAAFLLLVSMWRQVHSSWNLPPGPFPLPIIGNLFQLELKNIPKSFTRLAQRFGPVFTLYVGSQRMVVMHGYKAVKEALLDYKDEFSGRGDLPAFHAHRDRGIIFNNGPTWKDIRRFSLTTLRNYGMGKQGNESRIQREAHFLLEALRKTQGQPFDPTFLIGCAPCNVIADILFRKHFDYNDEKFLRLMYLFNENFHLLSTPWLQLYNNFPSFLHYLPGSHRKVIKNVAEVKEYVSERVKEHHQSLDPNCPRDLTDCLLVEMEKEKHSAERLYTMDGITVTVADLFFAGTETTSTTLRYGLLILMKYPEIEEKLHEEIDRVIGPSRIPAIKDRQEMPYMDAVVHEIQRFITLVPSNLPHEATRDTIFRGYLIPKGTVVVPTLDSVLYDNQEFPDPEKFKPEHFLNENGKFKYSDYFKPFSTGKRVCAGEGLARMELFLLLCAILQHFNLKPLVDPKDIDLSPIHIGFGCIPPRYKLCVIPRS
T7 sequence (P20815 whole entry): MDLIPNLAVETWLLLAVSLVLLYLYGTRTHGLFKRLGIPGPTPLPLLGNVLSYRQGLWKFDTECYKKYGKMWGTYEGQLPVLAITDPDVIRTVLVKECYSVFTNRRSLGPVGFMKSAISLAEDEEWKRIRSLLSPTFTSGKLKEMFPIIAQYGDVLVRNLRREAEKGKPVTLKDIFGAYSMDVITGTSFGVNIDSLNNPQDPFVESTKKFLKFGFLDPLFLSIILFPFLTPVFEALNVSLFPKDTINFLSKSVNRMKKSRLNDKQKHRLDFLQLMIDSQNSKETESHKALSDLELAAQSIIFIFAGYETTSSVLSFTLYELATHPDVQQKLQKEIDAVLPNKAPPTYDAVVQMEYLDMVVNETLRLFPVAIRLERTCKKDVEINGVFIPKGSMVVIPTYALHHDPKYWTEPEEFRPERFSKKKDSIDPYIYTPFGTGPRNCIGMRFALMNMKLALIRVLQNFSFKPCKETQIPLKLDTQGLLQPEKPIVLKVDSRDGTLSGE
T3 sequence (P10635 whole entry): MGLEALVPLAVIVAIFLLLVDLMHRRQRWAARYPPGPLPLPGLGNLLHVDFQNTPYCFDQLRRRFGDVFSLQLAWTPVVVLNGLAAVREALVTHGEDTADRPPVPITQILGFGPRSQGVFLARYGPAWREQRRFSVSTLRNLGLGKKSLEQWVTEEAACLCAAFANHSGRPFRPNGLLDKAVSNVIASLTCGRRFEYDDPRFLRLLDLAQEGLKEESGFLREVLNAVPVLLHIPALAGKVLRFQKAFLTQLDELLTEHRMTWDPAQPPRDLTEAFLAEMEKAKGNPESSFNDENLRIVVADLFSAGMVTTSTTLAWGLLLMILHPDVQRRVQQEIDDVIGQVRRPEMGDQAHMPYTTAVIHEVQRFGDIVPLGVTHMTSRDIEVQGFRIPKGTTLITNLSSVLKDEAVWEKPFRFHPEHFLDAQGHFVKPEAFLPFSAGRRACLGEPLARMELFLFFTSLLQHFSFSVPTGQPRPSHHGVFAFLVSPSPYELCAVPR
T2 sequence (P11712 whole entry): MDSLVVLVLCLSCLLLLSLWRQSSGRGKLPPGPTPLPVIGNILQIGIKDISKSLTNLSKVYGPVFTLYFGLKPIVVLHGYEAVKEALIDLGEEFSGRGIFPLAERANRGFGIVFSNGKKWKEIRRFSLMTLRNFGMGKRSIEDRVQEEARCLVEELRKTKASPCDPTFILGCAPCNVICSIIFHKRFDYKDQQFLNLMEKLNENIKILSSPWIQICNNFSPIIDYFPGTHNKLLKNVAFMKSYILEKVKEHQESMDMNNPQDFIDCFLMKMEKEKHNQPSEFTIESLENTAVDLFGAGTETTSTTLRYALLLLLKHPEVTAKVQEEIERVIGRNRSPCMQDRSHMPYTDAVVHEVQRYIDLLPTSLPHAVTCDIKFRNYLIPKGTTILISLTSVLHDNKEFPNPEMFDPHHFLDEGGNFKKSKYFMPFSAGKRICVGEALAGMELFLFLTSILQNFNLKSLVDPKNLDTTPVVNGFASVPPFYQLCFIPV
Sequence of CYP2E1 (P05181 whole entry): as the sequence (P05181 whole entry) above
Sequence of Dipeptidyl peptidase 8 (Q6V1X1 whole entry): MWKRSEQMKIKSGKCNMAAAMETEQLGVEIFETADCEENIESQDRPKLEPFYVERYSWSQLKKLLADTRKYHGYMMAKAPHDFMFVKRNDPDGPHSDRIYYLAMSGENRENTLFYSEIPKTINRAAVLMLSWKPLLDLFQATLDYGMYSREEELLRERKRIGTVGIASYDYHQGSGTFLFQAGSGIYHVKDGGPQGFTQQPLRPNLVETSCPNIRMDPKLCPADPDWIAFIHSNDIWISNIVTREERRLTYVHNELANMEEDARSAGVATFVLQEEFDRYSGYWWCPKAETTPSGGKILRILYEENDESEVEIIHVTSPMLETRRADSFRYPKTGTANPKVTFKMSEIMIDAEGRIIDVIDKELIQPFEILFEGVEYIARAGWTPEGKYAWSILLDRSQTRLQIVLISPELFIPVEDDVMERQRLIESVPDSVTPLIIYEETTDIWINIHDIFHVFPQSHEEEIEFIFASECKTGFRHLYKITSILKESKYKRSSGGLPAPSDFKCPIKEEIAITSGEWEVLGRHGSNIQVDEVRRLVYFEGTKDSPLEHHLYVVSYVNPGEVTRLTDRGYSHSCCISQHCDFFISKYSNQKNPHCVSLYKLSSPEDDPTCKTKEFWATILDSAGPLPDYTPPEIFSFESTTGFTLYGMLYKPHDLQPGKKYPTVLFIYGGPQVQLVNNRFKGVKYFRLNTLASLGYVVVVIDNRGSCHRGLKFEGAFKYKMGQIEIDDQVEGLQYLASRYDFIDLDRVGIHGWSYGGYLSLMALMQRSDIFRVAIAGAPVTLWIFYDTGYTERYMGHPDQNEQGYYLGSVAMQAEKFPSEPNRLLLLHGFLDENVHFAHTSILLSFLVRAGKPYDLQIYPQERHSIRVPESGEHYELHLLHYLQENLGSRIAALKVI
Sequence of CYP3A5 (P20815 whole entry): as the sequence (P20815 whole entry) above
Sequence of Dipeptidyl peptidase 4 (Mus musculus) (P28843 whole entry, looked up): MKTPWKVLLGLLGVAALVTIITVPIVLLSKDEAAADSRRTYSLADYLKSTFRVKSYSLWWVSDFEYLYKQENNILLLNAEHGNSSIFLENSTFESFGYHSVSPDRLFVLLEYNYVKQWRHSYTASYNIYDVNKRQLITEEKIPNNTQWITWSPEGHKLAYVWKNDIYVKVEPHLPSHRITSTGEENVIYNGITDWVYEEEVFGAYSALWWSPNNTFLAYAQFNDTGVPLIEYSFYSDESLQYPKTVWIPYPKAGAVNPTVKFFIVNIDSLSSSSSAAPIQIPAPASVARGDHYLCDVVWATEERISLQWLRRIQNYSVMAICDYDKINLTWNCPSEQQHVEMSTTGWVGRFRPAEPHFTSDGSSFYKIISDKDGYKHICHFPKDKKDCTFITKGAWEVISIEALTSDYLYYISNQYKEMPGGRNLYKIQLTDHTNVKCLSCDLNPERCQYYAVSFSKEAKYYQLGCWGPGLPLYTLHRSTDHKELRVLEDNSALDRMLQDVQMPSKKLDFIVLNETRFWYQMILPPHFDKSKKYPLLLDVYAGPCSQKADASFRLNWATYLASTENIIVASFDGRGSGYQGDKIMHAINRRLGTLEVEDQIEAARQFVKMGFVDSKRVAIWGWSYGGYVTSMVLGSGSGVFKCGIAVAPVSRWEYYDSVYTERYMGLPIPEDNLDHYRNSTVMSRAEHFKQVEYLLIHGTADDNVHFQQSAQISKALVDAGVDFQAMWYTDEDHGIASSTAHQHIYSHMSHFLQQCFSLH
Sequence of CYP2C19 (P33261 whole entry): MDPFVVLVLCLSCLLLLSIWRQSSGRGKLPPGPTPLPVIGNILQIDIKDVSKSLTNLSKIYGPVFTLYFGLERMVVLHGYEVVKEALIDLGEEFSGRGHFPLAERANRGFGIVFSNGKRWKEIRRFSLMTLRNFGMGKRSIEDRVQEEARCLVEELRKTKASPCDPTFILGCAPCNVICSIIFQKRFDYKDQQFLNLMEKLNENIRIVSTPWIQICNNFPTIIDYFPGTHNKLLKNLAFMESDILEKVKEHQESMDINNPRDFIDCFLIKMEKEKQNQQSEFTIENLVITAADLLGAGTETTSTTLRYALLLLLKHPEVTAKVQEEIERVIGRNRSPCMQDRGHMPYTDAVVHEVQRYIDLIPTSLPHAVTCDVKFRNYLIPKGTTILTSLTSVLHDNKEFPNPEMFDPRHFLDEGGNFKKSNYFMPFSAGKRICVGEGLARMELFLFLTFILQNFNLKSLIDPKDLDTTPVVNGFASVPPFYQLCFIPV
Sequence of CYP3A4 (P08684 whole entry): as the sequence (P08684 whole entry) above

## CS(=O)(=O)n1cc2c(n1)CN([C@@H]1C[C@H](N)[C@@H](c3cc(F)ccc3F)O[C@@H]1C(F)(F)F)C2 [COFROGLIPTIN]
[1]
  clearance: 2.57 mL/min/kg
[2]
  half-life: 29.9 h
[3]
  half-life: 25.6 h
[4]
  Cmax: 352 ng/mL
[5]
  microsomal CLint at 0.5 µM: 0.8 µL/min/mg
[6]
  inhibition: Dose-dependent effect
Rhesus monkey
  inhibition in vivo at 10 mg/kg: 43.4%
Mus musculus
  Activity: Active
Dipeptidyl peptidase 8
  IC50: > 100 µM
CYP2B6
  remaining at 0.5 h: > 95%
CYP2C19
  remaining at 0.5 h: > 95%
CYP2E1
  remaining at 0.5 h: > 95%
CYP3A4
  remaining at 0.5 h: > 95%
CYP3A5
  remaining at 0.5 h: > 95%
Cytochrome P450 2B6 [7]
  IC50: > 100 µM
Cytochrome P450 2C9 [8]
  IC50: > 100 µM
Cytochrome P450 2D6 [9]
  IC50: > 100 µM
Cytochrome P450 2C8
  IC50: > 100 µM
Cytochrome P450 2B6 [10]
  IC50: > 100 µM
Cytochrome P450 2C9 [11]
  IC50: > 100 µM
Cytochrome P450 2D6 [12]
  IC50: > 100 µM
Cytochrome P450 2E1 [13]
  IC50: > 100 µM
Cytochrome P450 3A4 [14]
  IC50: > 100 µM
Cytochrome P450 3A4 [15]
  IC50: > 100 µM
Cytochrome P450 3A5 [16]
  IC50: > 100 µM
Cytochrome P450 2E1 [17]
  IC50: > 100 µM
Cytochrome P450 3A4 [18]
  IC50: > 100 µM
Cytochrome P450 3A5 [19]
  IC50: 45.8 µM
[20]
  NOAEL at 3 month: 100 mg/kg
[21]
  AUC: 3600 µg·h/mL
[22]
  AUC: 34.9 µg·h/mL
